Data: patent US11286263B2, “Macrocyclic fluorine substituted indole derivatives” (The Broad Institute, Inc., priority 2017, dated 2022)
Structures can show the parent of a compound that is named as a salt. Where two headings read alike, the source gives them in different places.

Assays:
SUDHL10 = assay: Induction of cytotoxicity, SUDHL10 (Assay 6); settings: read-out: IC50 Cytotox SUDHL10 [M] (median), SUDHL10 cells, 5 h, CellTiter-Glo
MCL-1 = MCL-1 (Homo sapiens (Human), UniProt Q07820, K194A/K197A/R201A); assay: Protein-protein interaction assay MCL-1/Noxa BH3 peptide (MCL-1 assay), TR-FRET; type: binding; settings: MCL-1/Noxa BH3 peptide TR-FRET; median
In short: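 TR-FRET competition between MBP-MCL-1 (173-321, 1 nM) and biotin-Noxa BH3 peptide (1 nM) with anti-MBP-Eu/streptavidin-XL665; 11 compound levels 0.1 nM–20 μM, 10 min preincubation. Incubated 1 h at 22 °C then overnight at 4 °C, pH 7 Tris buffer. 665/620 ratio normalized to DMSO and no-MCL-1; 4-parameter IC50.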

A2780 = assay: Antiproliferation assay A2780 (Assay 7); type: cell-based; settings: A2780 cells, 72 h, CellTiter-Glo; single determinations; read-out: IC50 Antiproli A2780
In short: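 Treated cells sat 72 h in a humidified 37 °C incubator, outer wells unused, before CellTiter-Glo reagent and a 10 min wait preceded luminescence reading; identical measurement of a parallel day 0 plate defined time zero.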

MCL-1, sequence (Q07820 whole entry K194A/K197A/R201A, looked up): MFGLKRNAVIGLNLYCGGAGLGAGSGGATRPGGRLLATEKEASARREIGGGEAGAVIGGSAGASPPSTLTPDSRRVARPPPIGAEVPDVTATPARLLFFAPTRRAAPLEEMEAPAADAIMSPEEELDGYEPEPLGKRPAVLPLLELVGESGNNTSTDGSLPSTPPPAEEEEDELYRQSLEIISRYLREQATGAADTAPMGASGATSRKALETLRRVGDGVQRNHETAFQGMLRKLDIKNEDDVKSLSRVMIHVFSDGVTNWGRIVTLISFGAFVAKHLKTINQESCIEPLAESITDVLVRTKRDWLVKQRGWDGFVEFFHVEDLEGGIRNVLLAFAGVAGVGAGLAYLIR

Row | Compound | IC50 (SUDHL10) | IC50 (MCL-1) | IC50 (SUDHL10; Homo sapiens, SU-DHL10, 5 h) | IC50 (A2780)
1 | Cc1c2c(nn1C)COCCCCn1c(C(=O)O)c(CCCOc3ccc(F)c4ccccc34)c3ccc(F)c-2c31 (single isomer, unassigned; enantiomer 1) [Example 16, 4-fluoro-7-{3-[(4-fluoronaphthalen-1-yl)oxy]propyl}-2,3-dimethyl-2,10,11,12,13,15-hexahydro-pyrazolo[4′,3′:9,10][1,6]oxazacycloundecino[8,7,6-hi]indole-8-carboxylic acid (enantiomer 1)] | 4.3e-06 M | 1.9 nM | – | –
2 | Cc1c2c(nn1C)COCCCCn1c(C(=O)O)c(CCCOc3ccc(F)c4ccccc34)c3ccc(F)c-2c31 (racemic) [Example 15, (rac)-13-fluoro-1-(3-((4-fluoronaphthalen-1-yl)oxy)propyl)-11,12-dimethyl-4,5,6,7,9,11-hexahydropyrazolo[4′,3′:9,10][1]oxa[6]azacycloundecino[8,7,6-hi]indole-2-carboxylic acid] | – | 1.3 nM | 3e-06 M | –
3 | (rac)-1-(3-((2,3-dihydro-1H-inden-4-yl)oxy)propyl)-12-ethyl-13-fluoro-11-methyl-4,5,6,7,9,11-hexahydropyrazolo[4′,3′:9,10][1]oxa[6]azacycloundecino[8,7,6-hi]indole-2-carboxylic acid [Example 30] | – | 1.3 nM | – | 11200 nM
4 | CCc1c2c(nn1C)CN(C)CCCCn1c(C(=O)O)c(CCCOc3cccc4ccccc34)c3ccc(F)c-2c31 (racemic) [Example 54, (rac)-3-ethyl-4-fluoro-2,14-dimethyl-7-[3-(1-naphthyloxy)propyl]-10,11,12,13,14,15-hexahydro-2H-pyrazolo[3′,4′:8,9][1,6]diazacycloundecino[10,11,1-hi]indole-8-carboxylic acid] | – | 0.72 nM | 1.4e-06 M | –
5 | CCc1c2c(nn1C)CN(C)CCCCn1c(C(=O)O)c(CCCOc3cccc4c3CCCC4)c3ccc(F)c-2c31 (racemic) [Example 52, (rac)-3-ethyl-4-fluoro-2,14-dimethyl-7-[3-(5,6,7,8-tetrahydronaphthalen-1-yloxy)propyl]-10,11,12,13,14,15-hexahydro-2H-pyrazolo[3′,4′:8,9][1,6]diazacycloundecino[10,11,1-hi]indole-8-carboxylic acid] | – | 1.7 nM | 3.1e-07 M | –
6 | CCc1nn(C)c2c1-c1c(F)ccc3c(CCCOc4cc(C)c(Cl)c(C)c4)c(C(=O)O)n(c13)CCCCOC2 (racemic) [Example 46, (rac)-1-(3-(4-chloro-3,5-dimethylphenoxy)propyl)-12-ethyl-13-fluoro-10-methyl-4,5,6,7,9,10-hexahydropyrazolo[4′,3′:9,10][1]oxa[6]azacycloundecino[8,7,6-hi]indole-2-carboxylic acid] | – | 2 nM | 5.7e-06 M | –
7 | CCc1c2c(nn1C)CN(C)CCCCn1c(C(=O)O)c(CCCOc3cccc4cc(F)ccc34)c3ccc(F)c-2c31 (racemic) [Example 53, (rac)-3-ethyl-4-fluoro-7-{3-[(6-fluoro-1-naphthyhoxy]propyl}-2,14-dimethyl-10,11,12,13,14,15-hexahydro-2H-pyrazolo[3′,4′:8,9][1,6]diazacycloundecino[10,11,1-hi]indole-8-carboxylic acid] | – | 0.91 nM | 6.9e-07 M | –
8 | CCc1c2c(nn1C)COCCCCn1c(C(=O)O)c(CCCOc3ccc(F)c4ccccc34)c3ccc(F)c-2c31 (single isomer, unassigned; enantiomer 1) [Example 27, 3-ethyl-4-fluoro-7-{3-[(4-fluoronaphthalen-1-yl)oxy]propyl}-2-methyl-2,10,11,12,13,15-hexahydropyrazolo[4′,3′:9,10][1,6]oxazacycloundecino[8,7,6-hi]indole-8-carboxylic acid-N-ethylethanamine salt (enantiomer 1)] | 1.8e-06 M | 1.5 nM | – | –
9 | Cc1cc(OCCCc2c(C(=O)O)n3c4c(c(F)ccc24)-c2c(nn(C)c2C)COCCCC3)cc(C)c1Cl (racemic) [Example 20, (rac)-1-(3-(4-chloro-3,5-dimethylphenoxy)propyl)-13-fluoro-11,12-dimethyl-4,5,6,7,9,11-hexahydropyrazolo[4′,3′:9,10][1]oxa[6]azacycloundecino[8,7,6-hi]indole-2-carboxylic acid] | – | 1.5 nM | 2.6e-06 M | –
10 | CCc1nn(C)c2c1-c1c(F)ccc3c(CCCOc4ccc(F)c5ccccc45)c(C(=O)O)n(c13)CCCCOC2 (single isomer, unassigned; enantiomer 1) [Example 42, 3-ethyl-4-fluoro-7-{3-[(4-fluoronaphthalen-1-yl)oxy]propyl}-1-methyl-1,10,11,12,13,15-hexahydropyrazolo[4′,3′:9,10][1,6]oxazacycloundecino[8,7,6-hi]indole-8-carboxylic acid (enantiomer 1)] | 9.6e-06 M | 1.7 nM | – | –
11 | CCc1c2c(nn1C)COCCCCn1c(C(=O)O)c(CCCOc3cccc4cc(F)ccc34)c3ccc(F)c-2c31 (single isomer, unassigned; enantiomer 2) [Example 23, 3-ethyl-4-fluoro-7-{3-[(6-fluoronaphthalen-1-yl)oxy]propyl}-2-methyl-2,10,11,12,13,15-hexahydropyrazolo[4′,3′:9,10][1,6]oxazacycloundecino[8,7,6-hi]indole-8-carboxylic acid-N-ethylethanamine salt (enantiomer 2)] | 9e-06 M | 9.6 nM | – | –
12 | CCc1nn(C)c2c1-c1c(F)ccc3c(CCCOc4cccc5c4CCCC5)c(C(=O)O)n(c13)CCCCOC2 (racemic) [Example 44, (rac)-12-ethyl-13-fluoro-10-methyl-1-(3-((5,6,7,8-tetrahydronaphthalen-1-yl)oxy)propyl)-4,5,6,7,9,10-hexahydropyrazolo[4′,3′:9,10][1]oxa[6]azacycloundecino[8,7,6-hi]indole-2-carboxylic acid] | – | 1.7 nM | 4.2e-06 M | –
13 | Cc1c2c(nn1C)COCCCCn1c(C(=O)O)c(CCCOc3cccc4c3CCCC4)c3ccc(F)c-2c31 (racemic) [Example 18, (rac)-13-fluoro-11,12-dimethyl-1-(3-((5,6,7,8-tetrahydronaphthalen-1-yl)oxy)propyl)-4,5,6,7,9,11-hexahydropyrazolo[4′,3′:9,10][1]oxa[6]azacycloundecino[8,7,6-hi]indole-2-carboxylic acid] | – | 1.6 nM | 1.7e-06 M | –
14 | CCc1c2c(nn1C)COCCCCn1c(C(=O)O)c(CCCOc3cccc4cc(F)ccc34)c3ccc(F)c-2c31 (single isomer, unassigned; enantiomer 1) [Example 24, 3-ethyl-4-fluoro-7-{3-[(6-fluoronaphthalen-1-yl)oxy]propyl}-2-methyl-2,10,11,12,13,15-hexahydropyrazolo[4′,3′:9,10][1,6]oxazacycloundecino[8,7,6-hi]indole-8-carboxylic acid (enantiomer 1)] | 6.8e-07 M | 0.58 nM | – | –
15 | CCc1c2c(nn1C)CN(C)CCCCn1c(C(=O)O)c(CCCOc3cccc4c3CCC4)c3ccc(F)c-2c31 (racemic) [Example 51, (rac)-7-[3-(2,3-dihydro-1H-inden-4-yloxy)propyl]-3-ethyl-4-fluoro-2,14-dimethyl-10,11,12,13,14,15-hexahydro-2H-pyrazolo[3′,4′:8,9][1,6]diazacycloundecino[10,11,1-hi]indole-8-carboxylic acid] | – | 0.91 nM | 3.6e-07 M | –
